From patent US11583529B2, “Treatment of inflammatory disorders” (Aldeyra Therapeutics, Inc., priority 2017, dated 2023)

Test system: dextran sulfate sodium (DSS)-induced acute ulcerative colitis (UC)
Assay: 7-Day DSS-induced acute ulcerative colitis model
Format: in vivo, female Swiss Webster mice
[1] = 100 mg/kg IP QD, Days 0 through 6, vs IP vehicle
[2] = 200 mg/kg PO BID, Days 0 through 6, vs PO vehicle
[3] = 200 mg/kg PO BID, Days −3 through 6, vs PO vehicle

SMILES: CC(C)(O)c1nc2ccccc2cc1N [Compound I-6]
- Colon lengths, increase in the direction of normal [1]: 56%
- Colon weight-to-length ratios, reduction in the direction of normal [1]: 35%
- DAI score of occult/gross blood in stool, AUC [1]: significantly lower
- DAI score of stool consistency, area under the curve (AUC) [1]: significantly lower
- DAI summed scores, AUC [1]: significantly lower
- full colon PMN percentages, reduction [1]: 53%
- full colon edema, reduction [1]: 53%
- full colon erosion, reduction [1]: 91%
- full colon gland loss, reduction [1]: 82%
- full colon inflammation, reduction [1]: 56%
- full colon lymphoid aggregate counts, reduction [1]: 113%
- full colon neutrophil scores, reduction [1]: 73%
- full colon summed scores, reduction [1]: 68%
- proximal colon gland loss, reduction [1]: 57%
- proximal colon inflammation, reduction [1]: 32%
- proximal colon lymphoid aggregate counts, reduction [1]: 107%
- proximal colon summed scores, reduction [1]: 36%
- Body weight loss (100 mg/kg IP QD, Days 0 through 6, vs IP vehicle (SBECD)): significantly inhibited
- Body weights (200 mg/kg PO BID (Groups 5, 6, 7, 8, 9, and 10), vs PO vehicle): did not differ significantly
- full colon edema, reduction [2]: 44%
- proximal colon edema, reduction [2]: 48%
- proximal colon inflammation, reduction [2]: 36%
- full colon edema, reduction [3]: 58%
- proximal colon edema, reduction [3]: 41%
- proximal colon erosion, reduction [3]: 75%
- DAI stool consistency scores (Day 2, 100 mg/kg IP QD, Days 0 through 6, vs IP vehicle): significantly reduced
- DAI summed scores (Day 6, 100 mg/kg IP QD, Days 0 through 6, vs IP vehicle): significantly reduced
- DAI occult/gross blood in stool scores (Days 4 and 6, 100 mg/kg IP QD, Days 0 through 6, vs IP vehicle): significantly reduced
